PubChem BioAssay AID2511 (Broad Institute, 2010)

Tested on: human washed platelets, SFLLRN-induced P-selectin, flow cytometry
Test: inhibitors of SFLLRN-triggered platelet P-selectin exposure, dose response, cell-based, fluorescence, flow cytometry, human platelets (AID 2511)
Details: retest run 2

`CCC(=O)Nc1cccc(NC(=O)c2ccccc2Br)c1` and `CCCC(=O)Nc1cccc(NC(=O)c2ccccc2Br)c1` cannot be ordered by EC50: < 3 µM for the first, < 1 µM for the second.

`Cc1ccc(-n2c(N)c(C#N)c(-c3ccccc3)c(C#N)c2=O)cc1` and `CCCCC(=O)Nc1cccc(NC(=O)c2ccccc2Br)c1` cannot be ordered by EC50: < 3 µM for the first, < 10 µM for the second.

In the case of `O=C(Nc1cccc(NC(=O)c2ccccc2Cl)c1)c1ccco1`, the EC50 is reported as < 1 µM.
